Key:
IDO1 [1] = molecular target: T1, IDO1 (Homo sapiens, UniProt P14902); experiment: IDO1 enzymatic assay; assay type: biochemical; parameters: His tag (N); made in house; host or cells: E. coli; conditions: read-out: Enzyme IC50 IDO1
Method in brief: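 Recombinant N-terminally His-tagged IDO1 purified from E. coli (50 nM) was incubated with compound or DMSO and 1.3 mM D-tryptophan, 5 mM L-ascorbic acid, methylene blue and 0.4 mg/mL catalase. The buffer was 50 mM potassium phosphate pH 7.5 with 0.1% BSA, at 24 °C for 1.5 hours. N'-formylkynurenine formation was then read continuously at 321 nm for 1 hour, and activity was taken as the slope. IC50 was calculated from remaining enzyme activity across increasing compound concentrations.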

IDO1 [2] = molecular target: T1, IDO1; experiment: Hela cell-based IDO1 assay; conditions: Hela cells
Method in brief: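 HeLa cells were plated at 8000 per well in 96-well plates containing phenol red-free DMEM with 10% FBS, and after 4 hours compound dilutions made in DMSO were added together with IFN-γ (final 100 ng/mL) and 0.4 mM L-Trp before 48 hours at 37 °C, 5% CO2. Supernatants were deproteinised with trichloroacetic acid, mixed with 2% 4-(dimethylamino)benzaldehyde and read at 480 nm for kynurenine. Four-parameter logistic fits were run in XLfit. Potency was derived from these fits.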

[3] = molecular target: T2, cellular TDO2 in HEK293-TDO2 cells (Homo sapiens, UniProt P48775); experiment: 293-TDO2 cell-based assay (Kyn colorimetric); conditions: 48 hours of incubation
T2 construct: expressed in transfected cells; host or cells: HEK293 (ATCC), stably transfected
Method: The inhibitory activity of TDO2 inhibitors is determined by using a colorimetric reaction to measure Kyn generated from L-Trp (L-Tryptophon) oxidation by cellular TDO2 in HEK293-TDO2 cells stably transfected with a plasmid expression of Tryptophan 2,3-dioxygenase (for short, 293-TDO2).
HEK293 cells were obtained from the American Type Culture Collection and 293-TDO2 were recovered in 10% FBS-containing phenol red-free DMEM medium. Cells were plated onto a 96-well plate (100 μl/well) at 10000 cells per well and kept at 37° C. in a humidified incubator supplied with 5% CO2. 4 hours later, Compounds at different concentrations diluted in dimethylsulfoxide (DMSO) were added to plate. Cells were kept at 37° C. in a humidified incubator supplied with 5% CO2. After 48 hours of incubation, 100 μl supernatant from each well was removed to a new plate. The protein in the medium was precipitated with the addition of 8 μl 6N trichloroacetic acid. The plate was incubated at 60° C. for 30 minutes and then centrifugation at 2500 rpm for 10 minutes to remove sediments. 80 μl supernatants were carefully removed to a new clean plate and added with an equal volume of 2% 4-(Dimethylamino) benzaldehyde (D2004, sigma) dissolved in glacial acetic acid. The absorbance at 480 nm wavelength derived from Kyn was measured using a PHERAstar FS plate reader (BMG LABTECH). The IC50 for each compound was derived from fitting the dose-response data to the four-parameter logistic model by using XLfit software (IDBS).

T1 sequence (P14902 whole entry): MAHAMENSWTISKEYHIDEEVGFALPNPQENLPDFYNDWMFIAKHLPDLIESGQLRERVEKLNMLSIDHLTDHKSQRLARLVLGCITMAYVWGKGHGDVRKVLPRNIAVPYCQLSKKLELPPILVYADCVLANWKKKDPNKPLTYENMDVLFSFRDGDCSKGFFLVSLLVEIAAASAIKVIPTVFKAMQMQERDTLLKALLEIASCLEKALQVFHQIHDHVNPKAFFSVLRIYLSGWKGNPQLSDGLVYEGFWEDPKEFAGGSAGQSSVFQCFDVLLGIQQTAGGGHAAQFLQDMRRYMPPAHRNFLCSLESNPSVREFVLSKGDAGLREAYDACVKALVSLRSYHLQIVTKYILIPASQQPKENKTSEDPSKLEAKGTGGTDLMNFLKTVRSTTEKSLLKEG
T2 sequence (P48775 whole entry): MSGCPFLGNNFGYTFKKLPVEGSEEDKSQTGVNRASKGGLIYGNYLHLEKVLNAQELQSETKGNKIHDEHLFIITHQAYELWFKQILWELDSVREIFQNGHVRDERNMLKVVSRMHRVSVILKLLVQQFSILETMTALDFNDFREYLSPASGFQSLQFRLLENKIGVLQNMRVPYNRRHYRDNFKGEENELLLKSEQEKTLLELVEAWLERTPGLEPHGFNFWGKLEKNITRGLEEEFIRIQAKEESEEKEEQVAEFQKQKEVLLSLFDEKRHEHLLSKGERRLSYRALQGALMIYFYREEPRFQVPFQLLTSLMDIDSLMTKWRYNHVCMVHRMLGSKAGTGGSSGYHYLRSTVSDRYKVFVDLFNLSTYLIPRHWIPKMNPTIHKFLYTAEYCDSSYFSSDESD

Compound | IC50 (IDO1 [1]) [nM] | EC50 (IDO1 [2]) [nM] | EC50 [3] [nM]
OC(c1c(C2CC2)ccn2cncc12)C1CCN(c2ccc(F)c3cccnc23)CC1 (stereo not drawn) [Example C155, (7-cyclopropylimidazo[1,5-a]pyridin-8-yl)(1-(5-fluoroquinolin-8-yl)piperidin-4-yl)methanol] | 61 | 149 | > 10000
Nc1ccc(C2CCC(C(O)c3c(C4CC4)ccc4cncn34)CC2)cc1 (stereo not drawn) [Example D122, (4-(4-aminophenyl)cyclohexyl)(6-cyclopropylimidazo[1,5-a]pyridin-5-yl)methanol] | 28 | 228 | > 10000
OC(c1c(C2CC2)ccc2cncn12)C1CCC(c2cc3ccccc3s2)CC1 (stereo not drawn) [Example D154, (4-(benzo[b]thiophen-2-yl)cyclohexyl)(6-cyclopropylimidazo[1,5-a]pyridin-5-yl)methanol] | 68 | 648 | > 10000
OC(c1c(C2CC2)ccn2cncc12)C1CCC(c2ccnc3ccccc23)CC1 (stereo not drawn) [Example C130, (7-cyclopropylimidazo[1,5-a]pyridin-8-yl)(4-(quinolin-4-yl)cyclohexyl)methanol] | 36 | 93 | > 10000
OC(c1c(C2CC2)ccn2cncc12)C1CCC(c2cccc3ncccc23)CC1 (stereo not drawn) [Example C126, (7-cyclopropylimidazo[1,5-a]pyridin-8-yl)(4-(quinolin-5-yl)cyclohexyl)methanol] | 29 | 30 | > 10000
OC(c1c(C2CC2)ccc2cncn12)C1CCC(c2ccc(F)cc2Cl)CC1 (stereo not drawn) [Example D130, (4-(2-chloro-4-fluorophenyl)cyclohexyl)(6-cyclopropylimidazo[1,5-a]pyridin-5-yl)methanol] | 50 | 279 | > 10000
COc1cccc(C2CCC(C(O)c3c(C4CC4)ccn4cncc34)CC2)c1 (stereo not drawn) [Example C114, (7-cyclopropylimidazo[1,5-a]pyridin-8-yl)(4-(3-methoxyphenyl)cyclohexyl)methanol] | 51 | 195 | > 10000
O[C@@H](c1c(C2CC2)ccc2cncn12)C1CCN(c2ccc(Cl)cc2)CC1 (single isomer, unassigned) [Example D174b] | > 10000 | 5500 | > 10000
OC(c1c(C2CC2)ccn2cncc12)C1CCC(c2ccccc2C(F)(F)F)CC1 (stereo not drawn) [Example C116] | 160 | 1100 | > 10000
N#Cc1ccc(N2CCC(C(O)c3c(C4CC4)ccn4cncc34)CC2)cc1 (single isomer, unassigned) [Example C144b] | > 10000 | > 10000 | > 10000
Nc1ccc([C@H]2CC[C@H]([C@@H](O)c3c(C4CC4)ccc4cncn34)CC2)cc1 (single isomer, unassigned) [Example D122b] | 5200 | > 10000 | > 10000
O[C@H](c1c(C2CC2)ccc2cncn12)C1CCN(c2cccc(F)c2)CC1 [Example D172a] | 14 | 23 | > 10000
O[C@@H](c1c(C2CC2)ccc2cncn12)[C@H]1CC[C@H](c2cc(F)cc(F)c2)CC1 (single isomer, unassigned) [Example D144b] | 8000 | 6410 | > 10000
OC(c1c(C2CC2)ccc2cncn12)[C@H]1CC[C@H](c2ccc(F)cc2Cl)CC1 (single isomer, unassigned) [Example D130b] | > 10000 | 9370 | > 10000
COc1cccc(C2CCC(C(O)c3c(C(C)C)ccc4cncn34)CC2)c1 (stereo not drawn) [Example D169, (6-isopropylimidazo[1,5-a]pyridin-5-yl)(4-(3-methoxyphenyl)cyclohexyl)methanol] | 28 | 22 | > 10000
Cc1ccccc1[C@H]1CC[C@H]([C@@H](O)c2c(C3CC3)ccn3cncc23)CC1 (single isomer, unassigned) [Example C112b] | > 10000 | > 10000 | > 10000

— US10882856B2 (BeiGene, Ltd., priority 2017, dated 2021)
